# Reference: EP3335730A1, “COMPOUNDS FOR TREATING X-LINKED ADRENOLEUKODYSTROPHY” (Fundació Institut de Recerca Biomédica de Bellvitge …, priority 2016, dated 2018)
# Tests used:
# Abcd1^-/Abcd2^-/- mice [1] = assay: Bar cross test; format: in vivo; details: double knockout mice with TUDCA; Figure 3C
# Description: (§1) The bile acid tauroursodeoxycholic acid TUDCA (Prodotti Chimici e Alimentari S.p.A., Italy) was mixed into AIN-76A chow (Dyets) at 0.4% w/w. Male mice were randomly assigned to one of the following groups: wild-type mice (n=10) that received normal AIN-76A chow, Abcd1^-/- mice (n=10) that received normal AIN-76A chow and Abcd1^-l- mice (n=10) that received AIN-76A chow containing TUDCA. The animals were treated for 3 months starting at 9 months of age to assess its effect on the progression of the biochemical signs of X-linked adrenoleukodystrophy. […]
# (§2) For behavioral testing, assessment of hindlimb clasping was done by suspending mice from their tails until it reached a vertical position, but allowing the mice to grab the grill of the lid of the cage with the forelimbs, adapted from Dumser et al. cited supra. Hindlimb reflex was analysed for 10s in three consecutive trials separated by 5 min rest. […]
# (§3) Locomotor deficits in Abcd1 /Abcd2^-/- mice were evaluated using clasping, treadmill and bar cross experiments after TUDCA treatment as described (Dumser M- et al., 2007 cited supra, Launay N. et al., 2015 cited supra). […]
# Abcd1 null mice = assay: Immunoblot (Western blot) of ER stress and UPR markers in spinal cords of X-ALD mice; format: in vivo; details: diet with 0.4 % (wt/wt) TUDCA for 3 months
# From the text: The generation and genotyping of Abcd1 null mice have been previously described (Pujol A. et al., Hum Mol Genet 2002; 11:499-505, Lu JF. et al., Proc.Natl.Acad.Sci.U.S.A 1997; 94:9366-9371.). Mice used for experiments were of a pure C57BL/6J background. Abcd1 null and WT mice were separated into control and treated groups. Treated groups were fed with a mixture of antioxidants that included 1000 iu/kg Vitamin E and 0.5% α-lipoic acid in the diet and 1% N-acetyl-cysteine (NAC) in water. Daily feedings were initiated at 8 months of age and were continued for 4 months until sacrifice.
# as §1
# Tissues were lysed in ice-cold RIPA buffer (50 mM Tris-HCl, pH 8, 12 mM deoxycholic acid, 150 mM NaCl and 1% NP40, supplemented with Complete Protease Inhibitor Cocktail, Roche) using a Teflon-on-glass homogenizer and then centrifuged at 1500 x g for 10 min at 4°C. The protein concentration was determined using a BCA protein assay kit (Thermo Fisher Scientific, Inc.). […]
# To determine whether ER stress is regulated by redox imbalance in vivo, the inventors treated with antioxidants during 4 months the presymptomatic Abcd1 null mice at 8 months of age. Next, they assessed by Western Blots the presence of ER stress and UPR responses.
# The mouse model of the disease, the Abcd1 null mouse, develops a late onset axonopathy that resembles the most frequent X-linked adrenoleukodystrophy phenotype, AMN. […] Then, the inventors determined the protein levels of ER stress marker dysregulated in the Abcd1 null mice. […]
# Abcd1^-/Abcd2^-/- mice [2] = assay: Hindlimb clasping test; format: in vivo; details: double knockout mice with TUDCA; untreated score 1, wild type 2; Figure 3A
# Description: as §1, §2, §3
# Abcd1^-/Abcd2^-/- mice [3] = assay: Immunohistochemistry of axonal degeneration, microgliosis and astrocytosis in spinal cord; format: in vivo; details: 17-month-old double knockout mice, 0.4% w/w TUDCA in chow for 4 months from 13 months of age
# Description: (§4) The bile acid tauroursodeoxycholic acid TUDCA (Prodotti Chimici e Alimentari S.p.A., Italy) was mixed into AIN-76A chow (Dyets) at 0.4% w/w. Male mice were randomly assigned to one of the following groups: wild-type mice (n=10) that received normal AIN-76A chow, Abcd1^-/- mice (n=10) that received normal AIN-76A chow and Abcd1^-l- mice (n=10) that received AIN-76A chow containing TUDCA. The animals were treated for 3 months starting at 9 months of age to assess its effect on the progression of the biochemical signs of X-linked adrenoleukodystrophy. The double knockout mice and their control littermates were randomly assigned to one of the following groups: wild-type mice (n=10) that received normal AIN-76A chow; double knockout mice (n =10) that received normal AIN-76A chow; and double knockout mice (n =10) that received AIN-76A chow containing TUDCA. The animals were treated for 4 months starting at 13 months of age to coincide with the onset of clinical signs. TUDCA had no effect on weight or food intake under either treatment protocol.
# […] Immunohistochemistry was carried out with the avidin-biotin peroxidase method and at least five sections of the spinal cord were analysed per animal and per stain. […] The results were expressed as the mean ± standard deviation. […]
# Abcd1^-/Abcd2^-/- mice [4] = assay: Treadmill test; format: in vivo; details: double knockout mice, after 3 months of treatment with TUDCA; Figure 3B
# Description: as §1, §2, §3
# [5] = Weight and food intake during treatment in chow; format: in vivo, mice; details: 0.4% w/w in AIN-76A chow, either treatment protocol (3 months from 9 months; 4 months from 13 months)
# Description: as §4
smiles,measurement,setting,value
"C[C@H](CCC(=O)NCCS(=O)(=O)O)[C@H]1CC[C@H]2[C@@H]3[C@@H](O)C[C@@H]4C[C@H](O)CC[C@]4(C)[C@H]3CC[C@]12C [TUDCA, 3α,7β-Dihydroxy-5β-cholanoyltaurine]",number of slips,Abcd1^-/Abcd2^-/- mice [1],normalized
same,time necessary to cross the bar,Abcd1^-/Abcd2^-/- mice [1],normalized
same,"ATF6, P-PERK, P-eif2α/eif2α, ATF4 and CHOP levels",Abcd1 null mice; Figure 1C,normalized
same,PDI upregulation,Abcd1 null mice; Figure 1D,prevented
same,levels of the ER chaperones GRP78 and GRP94,Abcd1 null mice; Figure 1D,normalized
same,median clasping score,Abcd1^-/Abcd2^-/- mice [2],1.75
same,axonal damage markers,"Abcd1^-/Abcd2^-/- mice [3]; APP and synaptophysin accumulation, Figures 2A, 2B",strikingly reduced to control levels
same,numbers of reactive astrocytes and reactive microglia,"Abcd1^-/Abcd2^-/- mice [3]; GFAP and Iba-1 staining, Figure 2A",strikingly reduced to control levels
same,shock times and number of shocks,Abcd1^-/Abcd2^-/- mice [4],indistinguishable from wild types
same,food intake,[5],no effect
same,weight,[5],no effect
